Experimental data from PubChem BioAssay AID2060494 (Molecular Pharmacology Branch, DTP, NCI, 2025).

Test system: 435261-313-R-J1-PDC complex spheroid viability
Assay: Anticancer human tumor 435261-313-R-J1-PDC patient-derived colon adenocarcinoma cell line growth inhibition [GQUAD]
Conditions: for IC50: curve of first compound; for viability, T/C: stronger effect = lower value
Method in brief: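 Viability of tumor cells grown as complex spheroids with endothelial and stromal cells, exposed to drug combinations. Top concentration at or near clinical Cmax (else 10 microM), diluted in half-log increments.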

[1] = second compound 0.0316 µM, first compound 0.0316 µM
[2] = second compound 0.0316 µM, first compound 0.1 µM
[3] = second compound 0.0316 µM, first compound 0.316 µM
[4] = second compound 0.0316 µM, first compound 1 µM
[5] = second compound 0.0316 µM, first compound 3.16 µM
[6] = second compound 0.0316 µM, first compound 10 µM
[7] = second compound 0.1 µM, first compound 0.0316 µM
[8] = second compound 0.1 µM, first compound 0.1 µM
[9] = second compound 0.1 µM, first compound 0.316 µM
[10] = second compound 0.1 µM, first compound 1 µM
[11] = second compound 0.1 µM, first compound 3.16 µM
[12] = second compound 0.1 µM, first compound 10 µM
[13] = second compound 0.316 µM, first compound 0.0316 µM
[14] = second compound 0.316 µM, first compound 0.1 µM
[15] = second compound 0.316 µM, first compound 0.316 µM
[16] = second compound 0.316 µM, first compound 1 µM
[17] = second compound 0.316 µM, first compound 3.16 µM
[18] = second compound 0.316 µM, first compound 10 µM
[19] = second compound 1 µM, first compound 0.0316 µM
[20] = second compound 1 µM, first compound 0.1 µM
[21] = second compound 1 µM, first compound 0.316 µM
[22] = second compound 1 µM, first compound 1 µM
[23] = second compound 1 µM, first compound 3.16 µM
[24] = second compound 1 µM, first compound 10 µM
[25] = second compound 3.16 µM, first compound 0.0316 µM
[26] = second compound 3.16 µM, first compound 0.1 µM
[27] = second compound 3.16 µM, first compound 0.316 µM
[28] = second compound 3.16 µM, first compound 1 µM
[29] = second compound 3.16 µM, first compound 3.16 µM
[30] = second compound 3.16 µM, first compound 10 µM
[31] = second compound 10 µM, first compound 0.0316 µM
[32] = second compound 10 µM, first compound 0.1 µM
[33] = second compound 10 µM, first compound 0.316 µM
[34] = second compound 10 µM, first compound 1 µM
[35] = second compound 10 µM, first compound 3.16 µM
[36] = second compound 10 µM, first compound 10 µM
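Also: spheroids exposed to the agents for seven days before readout.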
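For viability, T/C in this document: percent of vehicle control viability with DMSO wells as 100%.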

`COc1cc(C2c3cc4c(cc3C(OC3OC5COC(C)OC5C(O)C3O)C3COC(=O)C23)OCO4)cc(OC)c1O` (stereo unspecified) + Cc1cnc(CNC(=O)c2c(=O)c3ccc(N4CCCN(C)CC4)nc3n3c2sc2ccccc23)cn1 was tested, and the IC50 (second compound 0.0316 µM) was greater than 10000 nM, the IC50 (second compound 0.1 µM) was greater than 10000 nM and the IC50 (second compound 0.316 µM) was greater than 10000 nM. The IC50 (second compound 1 µM) was less than 31.6 nM, the IC50 (second compound 3.16 µM) was less than 31.6 nM and the IC50 (second compound 10 µM) was less than 31.6 nM. For the same molecule, the viability, T/C [1] was 77.6%, the viability, T/C [2] was 59.1% and the viability, T/C [3] was 60.8%. The viability, T/C [4] was 56.3%, the viability, T/C [5] was 55% and the viability, T/C [6] was 54.2%. For the same molecule, the viability, T/C [7] was 86.6%, the viability, T/C [8] was 63.6% and the viability, T/C [9] was 54.2%. It also gave a viability, T/C [10] of 60.7%, a viability, T/C [11] of 47.1% and a viability, T/C [12] of 54.5%. The viability, T/C [13] was 48.3%, the viability, T/C [14] was 60% and the viability, T/C [15] was 53.1%. For the same molecule, the viability, T/C [16] was 53%, the viability, T/C [17] was 51.8% and the viability, T/C [18] was 50.7%. The viability, T/C [19] was 31.6%, the viability, T/C [20] was 38.1% and the viability, T/C [21] was 39%. For the same molecule, the viability, T/C [22] was 43%, the viability, T/C [23] was 34.3% and the viability, T/C [24] was 35.6%. It also gave a viability, T/C [25] of 16.7%, a viability, T/C [26] of 16.3% and a viability, T/C [27] of 11.1%. The viability, T/C [28] was 12%, the viability, T/C [29] was 19.7% and the viability, T/C [30] was 5.43%. The viability, T/C [31] was 0.14%, the viability, T/C [32] was 0.13% and the viability, T/C [33] was 0.12%. It also gave a viability, T/C [34] of 0.12%, a viability, T/C [35] of 0.2% and a viability, T/C [36] of 0.14%.
Molecule `COc1cccc2c1C(=O)c1c(O)c3c(c(O)c1C2=O)CC(O)(C(=O)CO)CC3OC1CC(N)C(O)C(C)O1` (stereo unspecified) + Cc1cnc(CNC(=O)c2c(=O)c3ccc(N4CCCN(C)CC4)nc3n3c2sc2ccccc23)cn1 has an IC50 (second compound 0.0316 µM) of 171 nM, an IC50 (second compound 0.1 µM) of 137 nM and an IC50 (second compound 0.316 µM) of less than 31.6 nM. For the same molecule, the IC50 (second compound 1 µM) was less than 31.6 nM, the IC50 (second compound 3.16 µM) was less than 31.6 nM and the IC50 (second compound 10 µM) was less than 31.6 nM. It also gave a viability, T/C [1] of 66.9%, a viability, T/C [2] of 48.1% and a viability, T/C [3] of 46.4%. It also gave a viability, T/C [4] of 26%, a viability, T/C [5] of 1.47% and a viability, T/C [6] of 2.7%. For the same molecule, the viability, T/C [7] was 64.9%, the viability, T/C [8] was 53.1% and the viability, T/C [9] was 37.9%. For the same molecule, the viability, T/C [10] was 21.9%, the viability, T/C [11] was 1.96% and the viability, T/C [12] was 2.36%. For the same molecule, the viability, T/C [13] was 48.4%, the viability, T/C [14] was 50.5% and the viability, T/C [15] was 44.8%. The viability, T/C [16] was 11.5%, the viability, T/C [17] was 0.48% and the viability, T/C [18] was 1.34%. For the same molecule, the viability, T/C [19] was 28.8%, the viability, T/C [20] was 35.5% and the viability, T/C [21] was 26%. For the same molecule, the viability, T/C [22] was 0.13%, the viability, T/C [23] was 0.11% and the viability, T/C [24] was 0.36%. It also gave a viability, T/C [25] of 15.4%, a viability, T/C [26] of 19.2% and a viability, T/C [27] of 3.74%. For the same molecule, the viability, T/C [28] was 0.1%, the viability, T/C [29] was 0.13% and the viability, T/C [30] was 0.2%. It also gave a viability, T/C [31] of 0.13%, a viability, T/C [32] of 0.19% and a viability, T/C [33] of 0.2%. It also gave a viability, T/C [34] of 0.16%, a viability, T/C [35] of 0.19% and a viability, T/C [36] of 0.19%.
Work on `Nc1ccn(C2OC(CO)C(O)C2(F)F)c(=O)n1` (stereo unspecified) + Cc1cnc(CNC(=O)c2c(=O)c3ccc(N4CCCN(C)CC4)nc3n3c2sc2ccccc23)cn1 yielded an IC50 (second compound 0.0316 µM) greater than 10000 nM, an IC50 (second compound 0.1 µM) greater than 10000 nM and an IC50 (second compound 0.316 µM) of 4260 nM. The IC50 (second compound 1 µM) was less than 31.6 nM, the IC50 (second compound 3.16 µM) was less than 31.6 nM and the IC50 (second compound 10 µM) was less than 31.6 nM. The viability, T/C [1] was 85.8%, the viability, T/C [2] was 63.4% and the viability, T/C [3] was 64.2%. It also gave a viability, T/C [4] of 59.8%, a viability, T/C [5] of 73.4% and a viability, T/C [6] of 59.3%. For the same molecule, the viability, T/C [7] was 62.5%, the viability, T/C [8] was 67.5% and the viability, T/C [9] was 58.2%. The viability, T/C [10] was 79.8%, the viability, T/C [11] was 61.6% and the viability, T/C [12] was 59.9%. It also gave a viability, T/C [13] of 64.5%, a viability, T/C [14] of 59.7% and a viability, T/C [15] of 56.3%. It also gave a viability, T/C [16] of 56.7%, a viability, T/C [17] of 54.4% and a viability, T/C [18] of 43.6%. For the same molecule, the viability, T/C [19] was 51.5%, the viability, T/C [20] was 46.9% and the viability, T/C [21] was 47.8%. It also gave a viability, T/C [22] of 52.1%, a viability, T/C [23] of 47% and a viability, T/C [24] of 28%. For the same molecule, the viability, T/C [25] was 23.3%, the viability, T/C [26] was 26.2% and the viability, T/C [27] was 21.9%. It also gave a viability, T/C [28] of 6.98%, a viability, T/C [29] of 14% and a viability, T/C [30] of 0.27%. The viability, T/C [31] was 0.21%, the viability, T/C [32] was 0.2% and the viability, T/C [33] was 0.17%. For the same molecule, the viability, T/C [34] was 0.31%, the viability, T/C [35] was 0.2% and the viability, T/C [36] was 0.21%.
